According to US20120010158A1, “TUMOR NECROSIS FACTOR INHIBITING PEPTIDES AND USES THEREOF” (PANACEA BIOTEC LTD., priority 2008, published 2012):
Residues, ends and D or L forms follow the SMILES beside them.

Key:
[1] = target: T1, TNF-alpha (Homo sapiens, UniProt P01375); assay: Inhibition of TNF-alpha mediated cytotoxicity of L-929 cells (crystal violet)
Protocol: (§2) The peptides of the present invention were analyzed for inhibition of TNF-alpha induced cytotoxicity employing murine fibroblast cell line, L929. Addition of TNF-alpha to L929 cells (ATCC) induces cytotoxicity, which can be estimated by staining of viable cells with vital dyes like MTT (3-(4,5-Dimethylthiazol-2-yl)-2,5-diphenyltetrazolium bromide, a tetrazole) or crystal violet followed by extraction of dyes with methanol. […] The assay was performed as follows:
(§3) L929 cells (maintained in Dulbecco's modified Eagle's medium supplemented with 10% FCS) were seeded at a density of 2×10^5 cells/ml in a microtitre plates, and incubated with actinomycin D (ACT-D) at concentration of 1 μg/ml for 2 h at 37° C. and 5% CO2. TNF-α (100 pg/ml) preincubated with 75 μM of peptide solution at 37° C. was added to L929 cells and incubated overnight at 37° C., 5% CO2. […]
(§4) The live cells of test and positive control plates were then stained with 100 μl/well of 0.05% crystal violet and incubated at room temperature for 15 min., washed with PBS and kept for overnight drying at room temperature. Crystal violet was extracted from the cells by 100 μl per well of methanol and absorbance of extracted crystal violet dye was estimated at 595 nm. Percent inhibition in cytotoxicity was calculated by the following formula: […]

[2] = target: T2, TNF-R1 (Homo sapiens, UniProt P19438); assay: Binding of peptide to TNF-R1 on U937 cells by flow cytometry; details: untreated 83%
T2 construct: endogenous in cells; host or cells: U937
T2 sequence (P19438 30-455): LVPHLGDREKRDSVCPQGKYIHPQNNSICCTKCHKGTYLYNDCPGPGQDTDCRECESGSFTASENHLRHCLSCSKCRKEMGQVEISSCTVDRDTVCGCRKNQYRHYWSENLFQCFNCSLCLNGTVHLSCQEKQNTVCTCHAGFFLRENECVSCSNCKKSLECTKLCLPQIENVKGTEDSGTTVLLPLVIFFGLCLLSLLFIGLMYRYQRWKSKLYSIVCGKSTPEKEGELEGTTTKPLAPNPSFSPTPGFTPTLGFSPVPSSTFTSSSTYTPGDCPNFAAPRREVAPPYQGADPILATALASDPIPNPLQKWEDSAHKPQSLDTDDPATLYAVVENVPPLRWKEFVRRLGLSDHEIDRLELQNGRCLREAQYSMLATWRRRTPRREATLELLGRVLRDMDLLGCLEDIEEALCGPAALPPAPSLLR
Excerpt: (§1) Flow cytometry assay technique was used to investigate binding of peptides to TNF-α or TNF-R1 employing U937 cells (a TNF-receptor expressing human leukemia cell line). Binding of peptide to TNF-α prevents TNF-α from interacting with TNF-R1 which can be analyzed by flow cytometry. Similarly, direct binding of peptide with TNF-R1 reduces percent TNF-R1 positive cells which can be analyzed by flow cytometry.
U937 cells were used to quantify the binding of peptides to TNF-R 1. TNF-alpha upon addition to U937 cells binds to its cognate receptor TNF-R1 on U937 cells leading to a reduction in percent cells positive for TNF-R1. TNF-alpha inhibiting peptides according to present invention bind to TNF-R1 and reduce the TNF-R1 positive cells after incubation of U937 cells with said peptides.
Peptide of Sequence ID-6 was analyzed for binding of peptide to TNF-R1 on U937 cells using flow cytometry. […] After two washes in binding buffer, the cells were analyzed using FACS Calibur flow cytometer (Becton Dickinson). The gates were set on the live cell population, and the degree of binding to TNF-R1 was calculated on the basis of percent cells positive for TNF-RI expression.

[3] = tested on: collagen induced arthritis; assay: Murine model of collagen induced arthritis; type: in vivo, C57BL/6 mice; details: for anticollagen IgG1/IgG2a ratio after therapy: vs PBS treated arthritic animals, FIG. 8b
Protocol: Male C57BL/6 mice obtained from animal house at Lalru, Panacea Biotec were used to develop a murine model of rheumatoid arthritis. Mice were intradermally immunized with 150 μg of chicken type-II collagen (Sigma) emulsified in complete Freunds adjuvant (CFA) (Sigma). On day 17 after primary immunization, a booster immunization with 100 μg of chick type II collagen in incomplete Freunds adjuvant was administered to animals (Ethan M Shevach, Curr. Prot. Immunol. 2002: 15.0.1-15.0.6; Inglis J et al, 2008 Nature Protocols, 4:612-618). Increase in paw thickness as compared to controls (healthy, male C57BL/6 mice) and presence of anti-collagen IgG antibodies were the parameters to assess development of arthritis. Paw thickness in animals was measured using digital Vernier Calipers and anticollagen antibodies were measured in the mouse serum on day 35 after immunization.
Chicken type-II collagen (sigma) was coated onto ELISA plates at 1 μg/ml in PBS and incubated overnight at 4° C. After three washes in PBS-0.05% Tween 20 (PBS-T), serum from collagen, vehicle (CFA) and PBS (control) injected mice was added to separate wells at dilution of 1:100. Plate was incubated at room temperature for 2 h. After 5 washes in PBS-T rabbit antimouse IgG HRP (Bethyl Laboratories) was added to wells at 1:10000 dilutions and incubated at room temperature for 45 min. After washing the plate in PBS-T, OPD (ortho-phenyl diamine) as substrate was added and colour development observed. Colour development was stopped by 2N HCl. Absorbance was recorded at 490 nm (Ethan M Shevach, Cum Prot. Immunol. 2002: 15.0.1-15.0.6).
Determination of optimum dose and schedule of peptide with Sequence ID-6 was performed in a murine model of collagen induced arthritis (as prepared above). Arthritic mice were randomized according to paw thickness and divided into separate groups of 4-5 animals for intravenous administration of peptide sequence ID-6.
Efficacy of peptide with sequence ID-6 and sequence ID-2 was compared with Etanercept (Marketed and approved TNF-alpha inhibiting agent with the brand name “Enbrel”) using a murine model of collagen induced arthritis (As prepared and described above). Peptides of Sequence ID-6, Sequence ID-2 and Etanercept were intravenously administered to the arthritic mice at a dose of 5 mg/kg three times in first week followed by once every week for three weeks.
Development of disease in collagen induced arthritis is accompanied by an increase in Th1 or proinflammatory response. IgG1/IgG2a levels were measured to determine that whether treatment with the peptides of the present invention and Etanercept improved clinical disease in murine model by decreasing Th1 response. Lower IgG1/IgG2a ratio would indicate down regulation of Th1 or proinflammatory response.

[4] = tested on: adjuvant induced arthritis; assay: Rat model of adjuvant induced arthritis; type: in vivo, Wistar rats; details: 2.5 mg/kg once every day for 6 days, then 3 doses every alternate day; for clinical score: p<0.05, score 0-4, FIG. 9b; for paw thickness: vs PBS treated arthritic rats, FIG. 9a
Protocol: In vivo efficacy of peptide with sequence ID-6 was evaluated in a rat model of “adjuvant” induced arthritis. This model is widely used for developing and testing anti-inflammatory drugs. Adjuvant arthritis (AA) in rats mimics features of inflammatory arthritis in humans (Pearson et al, 1956, Proc. Soc. Exp. Biol. Med. 112:95-10). AA was induced in male Wistar rats by intradermal immunization with 150 μg of complete freunds adjuvant followed by a booster immunization at day 7 with incomplete freunds adjuvant. Arthritis was evaluated in animals by clinical scoring and measurement of paw and joint thickness using digital vernier calipers. The clinical score was assigned according to following criteria: 0=no erythema or swelling 1=slight erythema or swelling of one of toes or fingers 2=erythema and swelling of more than one toe or finger 3=erythema and swelling of the ankle or wrist 4=complete erythema and swelling of toes or fingers and ankle or wrist and inability to bend the ankle or wrist. Arthritic rats were administered with peptide Sequence ID-6 at a dose of 2.5 mg/kg, once every day for 6 days in the first week followed by 3 doses every alternate day in the second week. Another group of arthritic animals received Etanercept (Et) in similar manner.

[5] = target: T1, TNF-alpha
Protocol: as §2, §3, §4

[6] = target: T1, TNF-alpha; assay: Inhibition of TNF-α binding to its receptor TNF-R1 on U937 cells (flow cytometry); parameters: host or cells: U937 cells carry the partner receptor endogenously; details: U937 cells with complex of peptide and TNF-alpha (5 ng); untreated 78±1%, TNF-alpha alone 32±10%
Excerpt: as §1
TNF-alpha binds to its cognate receptor TNF-R1 on U937 cells (ATCC) leading to a reduction in percent cells positive for TNF-R1. TNF-alpha binding peptides bind to TNF-alpha and prevent the interaction of TNF-alpha with TNF-R1. The percent cells positive for TNF-R1 can be quantified by staining with fluorochrome conjugated anti-TNF-R1 antibody.
Peptides of Sequence ID-2 and Sequence ID-6 were analyzed for inhibition of TNF-alpha binding to its receptor TNF-R1 on U937 cells. Inhibition of TNF-alpha binding to TNF-RI on U937 cells by peptides with sequence ID-2 or sequence ID-6 was estimated, using fluorescent activated cell sorter (FACS, FACSCALIBUR, Becton Dickinson, USA). […]

[7] = 5 mg/kg i.v. three times in first week then once every week for three weeks, pre vs post treatment, Example 5(d), FIG. 8a
[8] = 5 mg/kg i.v. three times in first week then once every week for three weeks

T1 sequence (P01375 77-233 limits assumed, species assumed): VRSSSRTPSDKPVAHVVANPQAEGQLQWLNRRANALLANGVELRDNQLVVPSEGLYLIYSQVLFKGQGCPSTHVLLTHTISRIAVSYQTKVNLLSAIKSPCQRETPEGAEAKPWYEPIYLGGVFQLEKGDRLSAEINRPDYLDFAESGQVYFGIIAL

CC(C)C[C@@H]1NC(=O)[C@H](Cc2ccc(O)cc2)NC(=O)[C@H](CCC(N)=O)NC(=O)[C@H](CO)NC(=O)[C@H](Cc2c[nH]c3ccccc23)NC(=O)[C@@H](NC(=O)[C@@H](N)Cc2ccc(O)cc2)CSSC[C@@H](C(=O)N[C@@H](Cc2ccc(O)cc2)C(=O)O)NC1=O [Cyclic WSQYL, cy Trp-Ser-Gln-Tyr-Leu CY]
inhibition at 75 µM [1]: 60 ± 10%

NC(=O)C[C@H](NC(=O)[C@@H](N)CO)C(=O)N[C@@H](Cc1ccc(O)cc1)C(=O)O [Sequence ID-6, Ser--Asn--Tyr] (H-Ser-Asn-Tyr-OH; N-terminus assumed)
percent cells positive for TNF-R1 ([2]; U937 cells incubated with peptide 250 μM): 32%
paw thickness [3, 7]: significant lowering of paw thickness
anticollagen IgG1/IgG2a ratio after therapy [3, 8]: lower ratio of IgG1/IgG2a
paw thickness ([3]; 5 mg/kg i.v. thrice weekly followed by once every week for 3 wks, Example 5(c), FIG. 7): significant reduction of paw thickness
paw thickness ([3]; 7.5 mg/kg i.v. once every week for 4 wks, Example 5(c), FIG. 7): insignificant lowering of paw thickness
clinical score [4]: significant lowering of clinical score
paw thickness [4]: Lowering of paw thickness
ability to inhibit TNF-alpha induced cytotoxicity compared with Etanercept [5]: comparable ability
percent cells positive for TNF-R1 [6]: 57±8%

Etanercept [reference compound]
paw thickness [3, 7]: significant lowering of paw thickness
anticollagen IgG1/IgG2a ratio after therapy [3, 8]: lower ratio of IgG1/IgG2a
clinical score [4]: significant lowering of clinical score
paw thickness [4]: Lowering of paw thickness

TNF-alpha
percent cells positive for TNF-R1 ([2]; U937 cells incubated with recombinant TNF-alpha 10 ng): 31.6%
